Reference: patent publication US20200247761A1, “SULFONAMIDE OR AMIDE COMPOUNDS, COMPOSITIONS AND METHODS FOR THE PROPHYLAXIS AND/OR TREATMENT OF AUTOIMMUNE, INFLAMMATION OR INFECTION RELATED DISORDERS” (TAIWANJ PHARMACEUTICALS CO., LTD, priority 2017, published 2020)

What follows are compounds tested on RAW264.7 cells (assay: Cell viability (MTT) of RAW264.7 cells). Settings: Test Con. 10 μM; MTT; RAW264.7 cells; percentage of viable LPS-stimulated cells.
Format: cell-based
Method: (§1) RAW264.7 cells (1.6×10^5 cells/well) or HEK 293 cells (2.5-5.0×10^4 cells/well) were seeded in 96-well plate overnight and treated with different compounds for 16-24 hours. Cells' growth were determined by MTT-based colorimetric assays. Viability of the test cells treated with vehicle (0.5% DMSO) only was defined as 100% viable. Survival of cells after treatment with DETDs was calculated using the following formula: viable cell number (%)=OD570 (treated cell culture)/OD570 (vehicle control)×100.
The cell viability assay was performed by the MTT method, in which cells were incubated with 45 μl of 5 mg/ml MTT for 1 hour at 37° C., and 150 μl of DMSO was added at the end of culture to dissolve the crystals. The signals of individual samples in 96-well plates were detected at O.D.570 nm with a Molecular Devices SpectraMax i3 Imaging Cytometer. Cell viability was expressed in percentage of viable LPS-stimulated cells.
With `C=CC(=O)N(c1ccc(F)cc1Cl)S(=O)(=O)c1c(C)oc(C)c1C(=O)OC` [Compound 42] the “Cell Viability (%) mean” value was 27.8%.

The compounds below were run on HEK293 cells (assay: Cell viability (MTT) of the TLR4-expressing HEK293 cells). Settings: Test Con. 10 μM, percentage of viable LPS-stimulated cells.
Format: cell-based
Method: as §1
The cell viability assay was performed by the MTT method. Cells were incubated with 45 μl of 5 mg/ml MTT for 1 hour at 37° C., and 150 μl of DMSO was added at the end of culture to dissolve the crystals. The signals of individual samples in 96-well plates were detected at O.D.570 nm with a Molecular Devices SpectraMax i3 Imaging Cytometer. Cell viability was expressed in percentage of viable LPS-stimulated cells.
With `C=CC(=O)N1CCC[C@H]1C(=O)Nc1ccc(F)cc1Cl` [Compound 61] the “Cell Viability (%) mean” value was 93.4%.
With `C=CC(=O)N(c1ccc(F)cc1Cl)S(=O)(=O)c1ccccc1OC(F)(F)F` [Compound 26] the “Cell Viability (%) mean” value was 86.8%.
`C=CC(=O)N1CCC[C@@H]1C(=O)Nc1ccc(F)cc1Cl` [Compound 65] was tested, and the “Cell Viability (%) mean” value was 100.5%.
With `C=CC(=O)N1CCCC[C@H]1C(=O)N(C)c1ccc(F)cc1Cl` [Compound 57] the “Cell Viability (%) mean” value was 95.9%.
With `C=CC(=O)N(c1ccc(F)cc1Cl)S(=O)(=O)c1c(C)oc(C)c1C(=O)OC` [Compound 42] the “Cell Viability (%) mean” value was 72.4%.

Same assay, conditions: Test Con. 20 μM, percentage of viable LPS-stimulated cells
With `O=S(=O)(Nc1ccc(F)cc1Cl)c1cccc2c1N(S(=O)(=O)CCl)CCC2` [Compound 16] the “Cell Viability (%) mean” value was 96.5%.
For `C/C=C/C(=O)N1CCCc2cccc(S(=O)(=O)Nc3ccc(F)cc3Cl)c21` [Compound 13], the “Cell Viability (%) mean” value was 86.6%.

These compounds were tested on mTNF-α secretion from LPS-stimulated RAW264.7 monocytes (assay: LPS induced mTNF-α release from RAW264.7 cells (ELISA)). Settings: Mus musculus, RAW264.7; Table 2; 10 μM; read-out: inhibition of LPS induced mTNF-α release from RAW264.7 cells.
Format: cell-based
Method: To confirm whether the inhibitory effect of the selected compounds of example 2.1 (i.e., Compounds 12, 15, 19, 20, 22, 24, 28, 30, 32, 34, 36, 38, 40, 42, 44, 45, 49, 50, 52 and 70) translates to anti-inflammation, they were further tested to see if any of them may suppress mTNF-α secretion from lipopolysaccharide (LPS)-stimulated RAW264.7 monocytes.
To this purpose, RAW264.7 cells were seeded at 1.6×10^5 cells/well into 96-well culture plates. Test compounds (i.e., Compounds 12, 15, 19, 20, 22, 24, 28, 30, 32, 34, 36, 38, 40, 42, 44, 45, 49, 50, 52 and 70, respectively at 10 μM) were added into the culture plates in triplicate and co-cultured at 37° C. in 5% CO2 for 30 minutes. LPS (final conc. 10 ng/ml/well) was then added into the culture plates and the cells were incubated for another 4 hours. At the end of culture, the cultured media were harvested for mTNF-α quantification by ELISA with commercial assay kits (R&D Systems, Minneapolis, Minn.) following the manufacturer's protocol. Signals of the individual samples in 96-well plates were detected at O.D.450 nm/570 nm with a Molecular Devices SpectraMax i3 Imaging Cytometer. The mTNF-α activity was expressed in percentage of viable LPS-stimulated cells without test compound treatment.
Work on `C=CC(=O)N(c1ccc(F)cc1Cl)S(=O)(=O)c1c(C)oc(C)c1C(=O)OC` [Compound 42] yielded an inhibition at 10 µM of 85 to 100%.

Same assay, conditions: Mus musculus; Test Con. 10 μM; LPS 10 ng/ml, 4 hours; RAW264.7 cells; read-out: mTNF-α inhibition (%) mean
`C=CC(=O)N(c1ccc(F)cc1Cl)S(=O)(=O)c1c(C)oc(C)c1C(=O)OC` [Compound 42] showed an inhibition at 10 µM of 98.6%.

What follows are compounds tested against T1, Toll-like receptor 4 (TLR4) (Homo sapiens, UniProt O00206) (assay: TLR4 activity: NF-κB-inducible SEAP reporter in LPS-stimulated TLR4-expressing HEK293 cells). Settings: Test Con. 10 μM; LPS 10 ng/ml; 16-24 hours; HEK293 cells expressing TLR4; read-out: TLR-4 inhibition (%) mean.
T1 construct: expressed in transfected cells; host or cells: HEK293 cells engineered to express TLR4
T1 sequence (O00206 24-839, species assumed): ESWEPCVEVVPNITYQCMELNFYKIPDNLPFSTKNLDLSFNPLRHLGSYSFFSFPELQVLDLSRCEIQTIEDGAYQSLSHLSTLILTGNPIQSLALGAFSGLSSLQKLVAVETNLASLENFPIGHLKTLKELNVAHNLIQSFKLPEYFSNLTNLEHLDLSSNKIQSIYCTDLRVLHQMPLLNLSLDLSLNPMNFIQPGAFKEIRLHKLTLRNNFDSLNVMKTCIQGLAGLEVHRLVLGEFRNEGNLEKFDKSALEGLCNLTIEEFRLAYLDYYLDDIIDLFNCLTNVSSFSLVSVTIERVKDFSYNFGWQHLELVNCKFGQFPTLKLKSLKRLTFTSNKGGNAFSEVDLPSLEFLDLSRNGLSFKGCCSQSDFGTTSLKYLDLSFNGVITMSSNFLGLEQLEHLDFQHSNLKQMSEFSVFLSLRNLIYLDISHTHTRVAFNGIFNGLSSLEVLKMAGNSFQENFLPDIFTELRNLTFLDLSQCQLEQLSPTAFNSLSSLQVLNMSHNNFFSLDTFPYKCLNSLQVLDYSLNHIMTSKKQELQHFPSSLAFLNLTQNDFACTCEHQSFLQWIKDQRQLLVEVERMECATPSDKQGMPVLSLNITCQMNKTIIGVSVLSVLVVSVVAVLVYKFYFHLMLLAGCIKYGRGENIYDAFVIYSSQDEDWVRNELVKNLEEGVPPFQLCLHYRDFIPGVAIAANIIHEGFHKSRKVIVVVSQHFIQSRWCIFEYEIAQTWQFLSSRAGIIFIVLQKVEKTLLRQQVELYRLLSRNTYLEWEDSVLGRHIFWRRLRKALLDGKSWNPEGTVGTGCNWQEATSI
T1 sequence (Q9Y6Y9 17-160 partner limits assumed, species assumed): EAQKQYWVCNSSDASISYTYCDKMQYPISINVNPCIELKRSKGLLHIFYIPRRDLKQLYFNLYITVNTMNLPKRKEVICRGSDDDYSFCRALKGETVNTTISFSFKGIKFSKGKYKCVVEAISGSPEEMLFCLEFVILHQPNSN
Format: cell-based
Method: Stimulation of the Toll-like receptor 4 (TLR4) was determined by assessing activation of the transcription factor NF-κB in HEK293 cells that were engineered to express TLR4. Assessment of TLR4 stimulation was based on the use of an NE-κB-inducible secreted alkaline phosphatase (SEAP) reporter system in which the SEAP reporter was under the control of a promoter inducible by NF-κB. Thus, the degree of activation of TLR4 can be indirectly quantified spectrophotometrically by measuring the amount of the SEAP reporter that is produced.
The TLR4-expressing cells were plated in HEK-Blue Detection (Invivogen, San Diego, Calif.) medium in a 96-well plate (25,000-50,000 cells/well). The cells were stimulated with lipopolysaccharides (LPS) alone or in combination with the compound of Example 1. Cell culture without LPS and the compound of Example 1 was defined as baseline control. To test whether the compound of Example 1 could block that activation of the TLR4, the cells were treated with the designated compound (10, 20 or 100 μM) and LPS (final conc. 10 ng/ml/well). After an incubation period (16-24 hours) at 37° C. in a CO2 incubator, the signals of individual samples in 96-well plates were detected at O.D.650 nm with a Molecular Devices SpectraMax i3 Imaging Cytometer. The TLR4 activity was expressed in percentage of LPS alone-stimulated cells minus baseline control.
Compound `C=CC(=O)N1CCC[C@H]1C(=O)Nc1ccc(F)cc1Cl` [Compound 61] has an inhibition at 10 µM of 3.7%.
For `C=CC(=O)N(c1ccc(F)cc1Cl)S(=O)(=O)c1ccccc1OC(F)(F)F` [Compound 26], the inhibition at 10 µM was 10.7%.
Work on `C=CC(=O)N1CCC[C@@H]1C(=O)Nc1ccc(F)cc1Cl` [Compound 65] yielded an inhibition at 10 µM of 15.8%.
With `C=CC(=O)N1CCCC[C@H]1C(=O)N(C)c1ccc(F)cc1Cl` [Compound 57] the inhibition at 10 µM was 17.5%.
Compound `C=CC(=O)N(c1ccc(F)cc1Cl)S(=O)(=O)c1c(C)oc(C)c1C(=O)OC` [Compound 42] has an inhibition at 10 µM of 100%.

Same assay, conditions: Test Con. 20 μM; LPS 10 ng/ml; 16-24 hours; HEK293 cells expressing TLR4; read-out: TLR-4 inhibition (%) mean
`O=S(=O)(Nc1ccc(F)cc1Cl)c1cccc2c1N(S(=O)(=O)CCl)CCC2` [Compound 16] showed an inhibition at 20 µM of 18%.
With `C/C=C/C(=O)N1CCCc2cccc(S(=O)(=O)Nc3ccc(F)cc3Cl)c21` [Compound 13] the inhibition at 20 µM was 10.9%.

Same assay, conditions: Test Con. 100 μM; LPS 10 ng/ml; 16-24 hours; HEK293 cells expressing TLR4; read-out: TLR-4 inhibition (%) mean
For `C=CC(=O)N1CCN(CC(=O)Nc2ccc(F)cc2)CC1` [Compound 6], the inhibition at 100 µM was 17.8%.
Work on `COC(=O)C1=CCN(CC(=O)Nc2ccc(F)cc2)CC1` [Compound 3] yielded an inhibition at 100 µM of 6.8%.

Same assay, conditions: summary of Table 1 (10, 20 or 100 μM)
In the case of `O=S(=O)(Nc1ccc(F)cc1Cl)c1cccc2c1N(S(=O)(=O)CCl)CCC2` [Compound 16], the “activity towards TLR-4 (in words)” value is reported as “mild or negligible activity”.
For `C=CC(=O)N1CCC[C@H]1C(=O)Nc1ccc(F)cc1Cl` [Compound 61], the “activity towards TLR-4 (in words)” value was “mild or negligible activity”.
`C=CC(=O)N(c1ccc(F)cc1Cl)S(=O)(=O)c1ccccc1OC(F)(F)F` [Compound 26] was tested, and the “activity towards TLR-4 (in words)” value was “mild or negligible activity”.
`C=CC(=O)N1CCC[C@@H]1C(=O)Nc1ccc(F)cc1Cl` [Compound 65] was tested, and the “activity towards TLR-4 (in words)” value was “mild or negligible activity”.
`C=CC(=O)N1CCN(CC(=O)Nc2ccc(F)cc2)CC1` [Compound 6] was tested, and the “activity towards TLR-4 (in words)” value was “mild or negligible activity”.
`COC(=O)C1=CCN(CC(=O)Nc2ccc(F)cc2)CC1` [Compound 3] was tested, and the “activity towards TLR-4 (in words)” value was “mild or negligible activity”.
With `C=CC(=O)N1CCCC[C@H]1C(=O)N(C)c1ccc(F)cc1Cl` [Compound 57] the “activity towards TLR-4 (in words)” value was “mild or negligible activity”.
With `C=CC(=O)N(c1ccc(F)cc1Cl)S(=O)(=O)c1c(C)oc(C)c1C(=O)OC` [Compound 42] the “activity towards TLR-4 (in words)” value was “strong antagonist”.
With `C/C=C/C(=O)N1CCCc2cccc(S(=O)(=O)Nc3ccc(F)cc3Cl)c21` [Compound 13] the “activity towards TLR-4 (in words)” value was “mild or negligible activity”.
